Reference: ChEMBL document CHEMBL4028801, “A multifactorial approach to hepatobiliary transporter assessment enables improved therapeutic compound development” (Toxicol Sci, 2013)
Where a name gives a salt, the structure may show the parent alone. Positions of bridges follow the written chain, without caps; N, C: chain ends. Residues, ends and D or L forms follow the SMILES beside them.

Experiments:
Bile salt export pump = Bile salt export pump (Homo sapiens, UniProt O95342); assay: Inhibition of human BSEP overexpressed in Sf9 cell membrane vesicles assessed as uptake of [3H]-taurocholate in presence of ATP measured after 15 to 20 mins by membrane vesicle transport assay; type: ADME, cell-based
Sequence of Bile salt export pump (O95342 whole entry): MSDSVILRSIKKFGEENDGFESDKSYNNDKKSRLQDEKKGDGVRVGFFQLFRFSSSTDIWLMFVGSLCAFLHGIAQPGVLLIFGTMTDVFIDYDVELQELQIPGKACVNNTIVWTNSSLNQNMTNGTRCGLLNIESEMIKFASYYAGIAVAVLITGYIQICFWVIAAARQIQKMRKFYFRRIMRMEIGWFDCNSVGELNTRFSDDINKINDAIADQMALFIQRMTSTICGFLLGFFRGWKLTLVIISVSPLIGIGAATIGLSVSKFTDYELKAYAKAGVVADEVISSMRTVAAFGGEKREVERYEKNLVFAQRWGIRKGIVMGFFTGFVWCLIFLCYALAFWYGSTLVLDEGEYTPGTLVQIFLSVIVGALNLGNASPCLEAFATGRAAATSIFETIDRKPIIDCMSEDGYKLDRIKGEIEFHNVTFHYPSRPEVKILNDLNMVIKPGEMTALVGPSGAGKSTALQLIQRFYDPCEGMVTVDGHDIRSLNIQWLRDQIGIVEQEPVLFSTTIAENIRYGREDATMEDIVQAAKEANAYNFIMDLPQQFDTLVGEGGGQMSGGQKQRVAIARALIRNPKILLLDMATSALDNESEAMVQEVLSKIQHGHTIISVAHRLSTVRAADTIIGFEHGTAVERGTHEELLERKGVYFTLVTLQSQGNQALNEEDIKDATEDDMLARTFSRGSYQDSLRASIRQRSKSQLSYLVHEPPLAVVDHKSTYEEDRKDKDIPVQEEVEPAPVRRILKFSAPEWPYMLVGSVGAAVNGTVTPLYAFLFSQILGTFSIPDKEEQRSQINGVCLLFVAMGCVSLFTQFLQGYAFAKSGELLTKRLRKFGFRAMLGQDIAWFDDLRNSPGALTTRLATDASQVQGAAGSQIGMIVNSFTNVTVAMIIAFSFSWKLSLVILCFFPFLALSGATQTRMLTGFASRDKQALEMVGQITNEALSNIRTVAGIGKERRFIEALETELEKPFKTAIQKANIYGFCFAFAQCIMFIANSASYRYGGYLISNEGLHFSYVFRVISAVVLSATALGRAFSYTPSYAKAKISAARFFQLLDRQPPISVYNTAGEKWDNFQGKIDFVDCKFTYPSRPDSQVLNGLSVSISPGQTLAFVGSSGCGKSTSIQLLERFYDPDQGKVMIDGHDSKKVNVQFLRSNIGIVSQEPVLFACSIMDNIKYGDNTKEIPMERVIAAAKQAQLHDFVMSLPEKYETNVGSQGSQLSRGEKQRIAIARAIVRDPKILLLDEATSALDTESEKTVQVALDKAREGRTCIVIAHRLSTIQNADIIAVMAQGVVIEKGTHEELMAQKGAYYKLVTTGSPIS

[1] = molecular target: ATP-binding cassette sub-family C member 3 (Homo sapiens, UniProt O15438); assay: Inhibition of human MRP3 overexpressed in Sf9 insect cell membrane vesicles assessed as uptake of [3H]-estradiol-17beta-D-glucuronide in presence of ATP and GSH measured after 10 mins by membrane vesicle transport assay; type: ADME, cell-based
Sequence of ATP-binding cassette sub-family C member 3 (O15438 whole entry): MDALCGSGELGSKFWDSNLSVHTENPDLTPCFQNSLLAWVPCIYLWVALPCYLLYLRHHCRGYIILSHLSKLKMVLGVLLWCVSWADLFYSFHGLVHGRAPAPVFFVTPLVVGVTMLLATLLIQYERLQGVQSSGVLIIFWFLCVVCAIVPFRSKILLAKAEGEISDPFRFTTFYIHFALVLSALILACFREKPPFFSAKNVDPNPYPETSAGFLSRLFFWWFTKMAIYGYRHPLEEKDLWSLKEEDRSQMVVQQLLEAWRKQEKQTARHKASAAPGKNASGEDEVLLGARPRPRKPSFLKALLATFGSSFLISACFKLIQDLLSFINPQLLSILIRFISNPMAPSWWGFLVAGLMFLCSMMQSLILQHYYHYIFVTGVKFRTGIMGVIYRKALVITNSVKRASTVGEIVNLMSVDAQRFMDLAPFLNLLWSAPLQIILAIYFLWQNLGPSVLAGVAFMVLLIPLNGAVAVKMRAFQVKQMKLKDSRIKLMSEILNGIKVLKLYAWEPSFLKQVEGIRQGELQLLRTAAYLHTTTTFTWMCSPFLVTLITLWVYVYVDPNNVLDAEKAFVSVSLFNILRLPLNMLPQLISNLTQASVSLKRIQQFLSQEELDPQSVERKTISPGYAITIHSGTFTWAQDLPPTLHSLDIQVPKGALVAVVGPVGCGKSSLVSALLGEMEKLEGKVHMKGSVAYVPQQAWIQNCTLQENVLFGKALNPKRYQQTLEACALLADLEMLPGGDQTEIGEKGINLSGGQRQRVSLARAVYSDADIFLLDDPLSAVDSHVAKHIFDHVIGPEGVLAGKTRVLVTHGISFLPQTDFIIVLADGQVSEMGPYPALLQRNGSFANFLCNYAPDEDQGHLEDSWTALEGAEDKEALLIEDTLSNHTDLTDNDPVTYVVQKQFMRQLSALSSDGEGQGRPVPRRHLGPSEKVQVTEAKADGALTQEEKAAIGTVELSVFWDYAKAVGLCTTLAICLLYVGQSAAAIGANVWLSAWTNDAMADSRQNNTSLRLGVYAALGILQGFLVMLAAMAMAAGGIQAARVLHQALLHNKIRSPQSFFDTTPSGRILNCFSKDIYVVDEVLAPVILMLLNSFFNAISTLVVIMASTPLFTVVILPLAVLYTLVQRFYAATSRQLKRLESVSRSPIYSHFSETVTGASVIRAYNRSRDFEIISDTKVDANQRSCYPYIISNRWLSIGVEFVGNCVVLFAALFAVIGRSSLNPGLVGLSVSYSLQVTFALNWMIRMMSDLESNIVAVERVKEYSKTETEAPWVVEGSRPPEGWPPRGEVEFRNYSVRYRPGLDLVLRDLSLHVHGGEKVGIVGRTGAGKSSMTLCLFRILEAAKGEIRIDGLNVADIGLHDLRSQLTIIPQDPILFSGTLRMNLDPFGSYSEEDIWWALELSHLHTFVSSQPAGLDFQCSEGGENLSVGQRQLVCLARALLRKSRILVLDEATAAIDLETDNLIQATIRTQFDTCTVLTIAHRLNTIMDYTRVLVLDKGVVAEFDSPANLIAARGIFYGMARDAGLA

[2] = molecular target: T1, ATP-binding cassette sub-family C member 4 (Homo sapiens, UniProt O15439); assay: Inhibition of human MRP4 overexpressed in Sf9 cell membrane vesicles assessed as uptake of [3H]-estradiol-17beta-D-glucuronide in presence of ATP and GSH measured after 20 mins by membrane vesicle transport assay; type: ADME, cell-based
T1 sequence (O15439 whole entry): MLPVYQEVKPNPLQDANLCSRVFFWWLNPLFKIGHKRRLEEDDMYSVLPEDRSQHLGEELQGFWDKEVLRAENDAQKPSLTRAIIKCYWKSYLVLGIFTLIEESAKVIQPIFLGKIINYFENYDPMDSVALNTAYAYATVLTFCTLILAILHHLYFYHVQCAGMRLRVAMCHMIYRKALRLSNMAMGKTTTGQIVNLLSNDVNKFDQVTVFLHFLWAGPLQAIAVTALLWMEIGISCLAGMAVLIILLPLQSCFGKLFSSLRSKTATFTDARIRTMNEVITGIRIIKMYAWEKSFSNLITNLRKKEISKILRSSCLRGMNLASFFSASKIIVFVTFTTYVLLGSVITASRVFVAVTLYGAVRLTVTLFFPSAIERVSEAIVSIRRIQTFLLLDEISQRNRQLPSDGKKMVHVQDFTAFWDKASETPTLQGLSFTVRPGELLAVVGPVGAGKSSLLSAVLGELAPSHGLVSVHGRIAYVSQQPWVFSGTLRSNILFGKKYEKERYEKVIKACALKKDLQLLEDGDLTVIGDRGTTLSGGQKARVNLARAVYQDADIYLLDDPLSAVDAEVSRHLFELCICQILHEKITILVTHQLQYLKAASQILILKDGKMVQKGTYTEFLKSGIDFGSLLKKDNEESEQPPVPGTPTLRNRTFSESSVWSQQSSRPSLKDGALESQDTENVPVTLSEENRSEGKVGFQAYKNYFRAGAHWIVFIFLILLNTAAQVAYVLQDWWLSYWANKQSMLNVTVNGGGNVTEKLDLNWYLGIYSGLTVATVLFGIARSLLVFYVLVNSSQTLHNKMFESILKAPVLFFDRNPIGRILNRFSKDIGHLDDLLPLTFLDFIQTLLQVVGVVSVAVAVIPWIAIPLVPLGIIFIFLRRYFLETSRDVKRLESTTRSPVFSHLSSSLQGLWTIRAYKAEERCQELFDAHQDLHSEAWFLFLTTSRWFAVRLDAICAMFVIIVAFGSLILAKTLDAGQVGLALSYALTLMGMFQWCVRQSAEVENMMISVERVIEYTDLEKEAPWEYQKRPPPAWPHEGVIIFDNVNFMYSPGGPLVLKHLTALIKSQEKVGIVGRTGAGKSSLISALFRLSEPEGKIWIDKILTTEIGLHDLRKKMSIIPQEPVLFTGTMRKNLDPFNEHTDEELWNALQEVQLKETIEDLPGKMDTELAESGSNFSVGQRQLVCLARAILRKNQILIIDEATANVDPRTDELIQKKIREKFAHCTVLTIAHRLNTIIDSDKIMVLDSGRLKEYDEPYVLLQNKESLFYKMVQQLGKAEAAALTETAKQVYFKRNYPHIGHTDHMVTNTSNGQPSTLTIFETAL

[3] = molecular target: ATP-binding cassette sub-family C member 2 (Homo sapiens, UniProt Q92887); assay: Inhibition of human MRP2 overexpressed in Sf9 cell membrane vesicles assessed as uptake of [3H]-estradiol-17beta-D-glucuronide in presence of ATP and GSH measured after 20 mins by membrane vesicle transport assay
Sequence of ATP-binding cassette sub-family C member 2 (Q92887 whole entry): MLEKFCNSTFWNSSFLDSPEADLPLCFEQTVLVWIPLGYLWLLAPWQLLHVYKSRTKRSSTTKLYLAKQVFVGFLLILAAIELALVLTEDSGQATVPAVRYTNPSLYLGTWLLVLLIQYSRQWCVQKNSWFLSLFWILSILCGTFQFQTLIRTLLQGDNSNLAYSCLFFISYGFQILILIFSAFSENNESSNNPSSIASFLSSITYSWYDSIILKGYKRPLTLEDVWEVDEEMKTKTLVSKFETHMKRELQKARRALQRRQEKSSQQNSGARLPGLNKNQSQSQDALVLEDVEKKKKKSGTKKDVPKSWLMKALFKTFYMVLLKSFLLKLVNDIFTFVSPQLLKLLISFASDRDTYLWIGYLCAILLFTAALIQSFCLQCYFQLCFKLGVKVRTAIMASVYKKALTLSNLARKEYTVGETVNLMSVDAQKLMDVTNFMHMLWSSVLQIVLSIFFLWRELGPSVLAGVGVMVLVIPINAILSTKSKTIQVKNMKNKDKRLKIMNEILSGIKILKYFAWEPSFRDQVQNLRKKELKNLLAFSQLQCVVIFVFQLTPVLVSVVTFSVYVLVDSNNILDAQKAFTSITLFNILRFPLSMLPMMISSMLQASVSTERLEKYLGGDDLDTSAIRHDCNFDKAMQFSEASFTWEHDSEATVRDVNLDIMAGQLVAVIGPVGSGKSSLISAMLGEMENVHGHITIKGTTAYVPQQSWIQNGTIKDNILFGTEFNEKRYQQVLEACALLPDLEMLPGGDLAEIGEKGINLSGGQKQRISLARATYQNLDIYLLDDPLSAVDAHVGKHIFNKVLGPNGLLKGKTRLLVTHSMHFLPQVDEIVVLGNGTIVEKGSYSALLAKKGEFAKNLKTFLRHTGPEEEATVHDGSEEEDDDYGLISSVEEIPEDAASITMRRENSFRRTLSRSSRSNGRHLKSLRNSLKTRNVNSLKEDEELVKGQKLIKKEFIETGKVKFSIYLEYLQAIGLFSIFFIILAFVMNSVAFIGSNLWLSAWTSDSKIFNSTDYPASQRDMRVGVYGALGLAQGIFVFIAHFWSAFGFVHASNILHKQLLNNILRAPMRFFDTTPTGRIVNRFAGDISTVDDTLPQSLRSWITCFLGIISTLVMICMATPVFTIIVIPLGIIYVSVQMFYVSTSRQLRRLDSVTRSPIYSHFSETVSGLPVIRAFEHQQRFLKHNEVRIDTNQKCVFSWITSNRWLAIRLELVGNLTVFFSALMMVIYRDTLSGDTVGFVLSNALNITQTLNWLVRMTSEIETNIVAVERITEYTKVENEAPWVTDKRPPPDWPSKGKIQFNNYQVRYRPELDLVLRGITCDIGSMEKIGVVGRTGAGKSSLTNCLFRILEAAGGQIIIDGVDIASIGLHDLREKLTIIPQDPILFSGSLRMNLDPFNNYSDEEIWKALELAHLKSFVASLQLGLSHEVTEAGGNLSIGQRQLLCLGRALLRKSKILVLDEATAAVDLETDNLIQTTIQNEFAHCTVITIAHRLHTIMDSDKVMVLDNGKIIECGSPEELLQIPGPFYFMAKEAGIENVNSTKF

Structure (SMILES)	IC50 (Bile salt export pump)	IC50 [1]	IC50 [2]	IC50 [3]
CC(=O)OCC(CCn1cnc2cnc(N)nc21)COC(C)=O [FAMCICLOVIR]	> 133 µM	> 133 µM	> 133 µM	> 133 µM
CC(=O)Oc1ccccc1C(=O)O [ASPIRIN]	> 133 µM	> 133 µM	> 133 µM	> 133 µM
CC(=O)Nc1c(I)c(NC(C)=O)c(I)c(C(=O)O)c1I [DIATRIZOIC ACID]	> 133 µM	> 133 µM	> 133 µM	> 133 µM
CS(=O)(=O)c1ccc(C2=C(c3ccccc3)C(=O)OC2)cc1 [ROFECOXIB]	> 133 µM	> 133 µM	> 133 µM	> 133 µM
CCOc1ccc(NC(C)=O)cc1 [PHENACETIN]	> 133 µM	> 133 µM	> 133 µM	> 133 µM
Cc1noc(NS(=O)(=O)c2ccc(N)cc2)c1C [SULFISOXAZOLE]	> 133 µM	> 133 µM	> 133 µM	> 133 µM
Cc1cc(NS(=O)(=O)c2ccc(N)cc2)no1 [SULFAMETHOXAZOLE]	> 133 µM	> 133 µM	> 133 µM	> 133 µM
C=CCc1ccccc1OCC(O)CNC(C)C (configuration not stated) [ALPRENOLOL]	> 133 µM	> 133 µM	> 133 µM	> 133 µM
CCCN1C[C@H](CSC)C[C@@H]2c3cccc4[nH]cc(c34)C[C@H]21 [PERGOLIDE MESYLATE]	> 133 µM	> 133 µM	> 133 µM	> 133 µM
CC(=O)O[C@H]1C[C@@H]2CC[C@@H]3[C@H](CC[C@@]4(C)[C@H]3C[C@H]([N+]3(C)CCCCC3)[C@@H]4OC(C)=O)[C@@]2(C)C[C@@H]1[N+]1(C)CCCCC1 [PANCURONIUM BROMIDE]	> 133 µM	> 133 µM	> 133 µM	> 133 µM
C#C[C@]1(O)CC[C@H]2[C@@H]3CCc4cc(O)ccc4[C@H]3CC[C@@]21C [ETHINYL ESTRADIOL]	14 µM	> 133 µM	> 133 µM	> 133 µM
CS(=O)(=O)c1ccc([C@@H](O)[C@@H](CO)NC(=O)C(Cl)Cl)cc1 [THIAMPHENICOL]	> 133 µM	> 133 µM	> 133 µM	> 133 µM
CN1CCC(=C2c3ccccc3CC(=O)c3sccc32)CC1 [KETOTIFEN FUMARATE]	> 133 µM	> 133 µM	> 133 µM	> 133 µM
Cc1c(OCC(F)(F)F)ccnc1C[S+]([O-])c1nc2ccccc2[nH]1 (configuration not stated) [LANSOPRAZOLE]	> 133 µM	> 133 µM	> 133 µM	> 133 µM
COC[C@@H](NC(C)=O)C(=O)NCc1ccccc1 [LACOSAMIDE]	> 133 µM	> 133 µM	> 133 µM	> 133 µM
C[C@H]1c2cccc(O)c2C(=O)C2=C(O)[C@]3(O)C(=O)C(C(N)=O)=C(O)[C@@H](N(C)C)[C@@H]3[C@@H](O)[C@@H]21 [DOXYCYCLINE HYDROCHLORIDE]	> 133 µM	> 133 µM	> 133 µM	> 133 µM
Cc1cn([C@H]2C=C[C@@H](CO)O2)c(=O)[nH]c1=O [STAVUDINE]	> 133 µM	> 133 µM	> 133 µM	> 133 µM
c1cnc2cc3c(cc2n1)[C@@H]1CNC[C@H]3C1	> 133 µM	> 133 µM	> 133 µM	> 133 µM
O=C(NCCN1CCOCC1)c1ccc(Cl)cc1 [MOCLOBEMIDE]	> 133 µM	> 133 µM	> 133 µM	> 133 µM

Structure (SMILES)	IC50 (Bile salt export pump)	IC50 [1]	IC50 [2]	IC50 [3]
CNC1(c2ccccc2Cl)CCCCC1=O (configuration not stated) [KETAMINE]	> 133 µM	> 133 µM	> 133 µM	> 133 µM
C[C@H]1O[C@H](O[C@H]2[C@H](O)[C@@H](O)[C@@H](O[C@H]3[C@H](O)[C@@H](O)C(O)O[C@@H]3CO)O[C@@H]2CO)[C@H](O)[C@@H](O)[C@@H]1N[C@H]1C=C(CO)[C@@H](O)[C@H](O)[C@H]1O (some centres not stated) [ACARBOSE]	> 133 µM	> 133 µM	> 133 µM	> 133 µM
c1ccc(C2(c3ccccc3)CC2C2=NCCN2)cc1 (configuration not stated) [CIFENLINE]	> 133 µM	> 133 µM	> 133 µM	> 133 µM
NCCCC[C@H](NC(=O)[C@@H]1CCCN1C(=O)[C@@H]1CSSC[C@H](NC(=O)CNC(=O)CNC(=O)CN)C(=O)N[C@@H](Cc2ccc(O)cc2)C(=O)N[C@@H](Cc2ccccc2)C(=O)N[C@@H](CCC(N)=O)C(=O)N[C@@H](CC(N)=O)C(=O)N1)C(=O)NCC(N)=O (H-GGGCYFQNCPKG-NH2; disulfide 4-9)	> 133 µM	> 133 µM	> 133 µM	> 133 µM
C[C@@H]1CCN(C(=O)CC#N)C[C@@H]1N(C)c1ncnc2[nH]ccc12 [TOFACITINIB]	> 133 µM	> 133 µM	> 133 µM	> 133 µM
O=C(CCCCCCC(=O)Nc1ccccc1)NO [VORINOSTAT]	> 133 µM	> 133 µM	> 133 µM	> 133 µM
Clc1ccc(COC(Cn2ccnc2)c2ccc(Cl)cc2Cl)c(Cl)c1 (configuration not stated) [MICONAZOLE NITRATE]	114 µM	> 133 µM	> 133 µM	> 133 µM
CNCCC=C1c2ccccc2CCc2ccccc21 [NORTRIPTYLINE]	> 133 µM	> 133 µM	> 133 µM	> 133 µM
CCOC(=O)/C=C(C)/C=C/C=C(C)/C=C/c1c(C)cc(OC)c(C)c1C [ETRETINATE]	> 133 µM	> 133 µM	> 133 µM	> 133 µM
CCCCNC(=O)NS(=O)(=O)c1ccc(C)cc1 [TOLBUTAMIDE]	> 133 µM	> 133 µM	> 133 µM	> 133 µM
Cc1cccc(C)c1OCC(C)N (configuration not stated) [MEXILETINE]	> 133 µM	> 133 µM	> 133 µM	> 133 µM
Clc1ccc(CO/N=C(\Cn2ccnc2)c2ccc(Cl)cc2Cl)c(Cl)c1 [OXICONAZOLE NITRATE]	49.3 µM	> 133 µM	> 133 µM	> 133 µM
Cc1ncc([N+](=O)[O-])n1CC(O)CCl (configuration not stated) [ORNIDAZOLE]	> 133 µM	> 133 µM	> 133 µM	> 133 µM
CCOC(=O)O[C@]1(C(=O)OCCl)CC[C@H]2[C@@H]3CCC4=CC(=O)C=C[C@]4(C)[C@H]3[C@@H](O)C[C@@]21C [LOTEPREDNOL ETABONATE]	40.4 µM	15.5 µM	> 133 µM	> 133 µM
CCCCCCCCCCC[C@@H](C[C@@H]1OC(=O)[C@H]1CCCCCC)OC(=O)[C@H](CC(C)C)NC=O [ORLISTAT]	> 133 µM	> 133 µM	> 133 µM	> 133 µM
C[C@]12CC[C@H]3[C@@H](CC[C@@]45O[C@@H]4C(O)=C(C#N)C[C@]35C)[C@@H]1CC[C@@H]2O [TRILOSTANE]	> 133 µM	> 133 µM	> 133 µM	> 133 µM
CC(C)c1nc(N(C)S(C)(=O)=O)nc(-c2ccc(F)cc2)c1/C=C/[C@@H](O)C[C@@H](O)CC(=O)O [ROSUVASTATIN CALCIUM]	> 133 µM	58.3 µM	26.8 µM	> 133 µM
NC(=O)N1c2ccccc2CC(=O)c2ccccc21 [OXCARBAZEPINE]	> 133 µM	> 133 µM	> 133 µM	> 133 µM
CCOC(=O)c1ccc(C#Cc2ccc3c(c2)C(C)(C)CCS3)nc1 [TAZAROTENE]	> 133 µM	> 133 µM	> 133 µM	> 133 µM
